Source: PubChem BioAssay (NCI)
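These data come from cells grown in 96-well plates and exposed to compound for 48 hours at five concentrations. Abbreviation: GI50, concentration required for 50% inhibition of growth. TGI: concentration producing complete growth inhibition.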

What was measured:
Test in all cases: NCI anticancer screen, dose series, 48 h
786-0 renal = system: 786-0 renal
A498 renal = system: A498 renal
A549 NSCLC = system: A549 NSCLC
ACHN renal = system: ACHN renal
BT-549 breast = system: BT-549 breast
CAKI-1 renal = system: CAKI-1 renal
CCRF-CEM leukemia = system: CCRF-CEM leukemia
COLO 205 colon = system: COLO 205 colon
DU-145 prostate = system: DU-145 prostate
EKVX NSCLC = system: EKVX NSCLC
HCC-2998 colon = system: HCC-2998 colon
HCT-116 colon = system: HCT-116 colon
HCT-15 colon = system: HCT-15 colon
HL-60(TB) leukemia = system: HL-60(TB) leukemia
HOP-62 NSCLC = system: HOP-62 NSCLC
HOP-92 NSCLC = system: HOP-92 NSCLC
HS 578T breast = system: HS 578T breast
HT29 colon = system: HT29 colon
IGROV1 ovarian = system: IGROV1 ovarian
K-562 leukemia = system: K-562 leukemia
KM12 colon = system: KM12 colon
LOX IMVI melanoma = system: LOX IMVI melanoma
M14 melanoma = system: M14 melanoma
MALME-3M melanoma = system: MALME-3M melanoma
MCF7 breast = system: MCF7 breast
MDA-MB-435 = system: MDA-MB-435
MDA-MB-468 breast = system: MDA-MB-468 breast
MOLT-4 leukemia = system: MOLT-4 leukemia
NCI-H226 lung = system: NCI-H226 lung
NCI-H23 lung = system: NCI-H23 lung
NCI-H460 lung = system: NCI-H460 lung
NCI-H522 lung = system: NCI-H522 lung
NCI/ADR-RES ovarian = system: NCI/ADR-RES ovarian
OVCAR-3 ovarian = system: OVCAR-3 ovarian
OVCAR-4 ovarian = system: OVCAR-4 ovarian
OVCAR-5 ovarian = system: OVCAR-5 ovarian
OVCAR-8 ovarian = system: OVCAR-8 ovarian
PC-3 prostate = system: PC-3 prostate
RPMI-8226 leukemia = system: RPMI-8226 leukemia
RXF 393 renal = system: RXF 393 renal
SF-268 CNS = system: SF-268 CNS
SF-295 CNS = system: SF-295 CNS
SF-539 CNS = system: SF-539 CNS
SK-MEL-28 melanoma = system: SK-MEL-28 melanoma
SK-MEL-5 melanoma = system: SK-MEL-5 melanoma
SK-OV-3 ovarian = system: SK-OV-3 ovarian
SN12C renal = system: SN12C renal
SNB-19 CNS = system: SNB-19 CNS
SR leukemia = system: SR leukemia
SW-620 colon = system: SW-620 colon
T-47D breast = system: T-47D breast
TK-10 renal = system: TK-10 renal
U251 CNS = system: U251 CNS
UACC-257 melanoma = system: UACC-257 melanoma
UACC-62 melanoma = system: UACC-62 melanoma

In the case of CC(C)C[C@H](NC(=O)CNC(=O)C[C@H]1O[C@@H]2OC3(C)CC[C@H]4[C@H](C)CC[C@@H]([C@H]1C)[C@@]24OO3)B(O)O, the GI50 (786-0 renal) was 3320 nM, the TGI (786-0 renal) was > 65000 nM and the GI50 (A498 renal) was 5480 nM. For the same molecule, the TGI (A498 renal) was > 65000 nM, the GI50 (A549 NSCLC) was 3030 nM and the TGI (A549 NSCLC) was > 65000 nM. The GI50 (ACHN renal) was 4750 nM, the TGI (ACHN renal) was > 65000 nM and the GI50 (BT-549 breast) was 261 nM. For the same molecule, the TGI (BT-549 breast) was 1220 nM, the GI50 (CAKI-1 renal) was 24300 nM and the TGI (CAKI-1 renal) was > 65000 nM. The GI50 (CCRF-CEM leukemia) was 251 nM, the TGI (CCRF-CEM leukemia) was 2740 nM and the GI50 (COLO 205 colon) was 2640 nM. For the same molecule, the TGI (COLO 205 colon) was 13800 nM, the GI50 (DU-145 prostate) was 7320 nM and the TGI (DU-145 prostate) was > 65000 nM. The GI50 (EKVX NSCLC) was 5950 nM, the TGI (EKVX NSCLC) was > 65000 nM and the GI50 (HCC-2998 colon) was 1170 nM. It also gave a TGI (HCC-2998 colon) of 2210 nM, a GI50 (HCT-116 colon) of 437 nM and a TGI (HCT-116 colon) of 1750 nM. The GI50 (HCT-15 colon) was 5520 nM, the TGI (HCT-15 colon) was 16500 nM and the GI50 (HL-60(TB) leukemia) was 210 nM. It also gave a TGI (HL-60(TB) leukemia) of 4620 nM, a GI50 (HOP-62 NSCLC) of 3050 nM and a TGI (HOP-62 NSCLC) of 14700 nM. The GI50 (HOP-92 NSCLC) was 1500 nM, the TGI (HOP-92 NSCLC) was 4900 nM and the GI50 (HS 578T breast) was 1910 nM. The TGI (HS 578T breast) was > 65000 nM, the GI50 (HT29 colon) was 983 nM and the TGI (HT29 colon) was 3460 nM. It also gave a GI50 (IGROV1 ovarian) of 2690 nM, a TGI (IGROV1 ovarian) of 13800 nM and a GI50 (K-562 leukemia) of 1920 nM. The TGI (K-562 leukemia) was > 65000 nM, the GI50 (KM12 colon) was 1670 nM and the TGI (KM12 colon) was 4450 nM. The GI50 (LOX IMVI melanoma) was 753 nM, the TGI (LOX IMVI melanoma) was 1680 nM and the GI50 (M14 melanoma) was 1240 nM. It also gave a TGI (M14 melanoma) of 3460 nM, a GI50 (MALME-3M melanoma) of 719 nM and a TGI (MALME-3M melanoma) of 2790 nM. The GI50 (MCF7 breast) was 349 nM, the TGI (MCF7 breast) was > 65000 nM and the GI50 (MDA-MB-435) was 275 nM. The TGI (MDA-MB-435) was 1690 nM, the GI50 (MDA-MB-468 breast) was 341 nM and the TGI (MDA-MB-468 breast) was 1560 nM. For the same molecule, the GI50 (MOLT-4 leukemia) was 267 nM, the TGI (MOLT-4 leukemia) was 5190 nM and the GI50 (NCI-H226 lung) was 455 nM. The TGI (NCI-H226 lung) was 1500 nM, the GI50 (NCI-H23 lung) was 1680 nM and the TGI (NCI-H23 lung) was 8450 nM. For the same molecule, the GI50 (NCI-H460 lung) was 3540 nM, the TGI (NCI-H460 lung) was 18900 nM and the GI50 (NCI-H522 lung) was 531 nM. The TGI (NCI-H522 lung) was 1670 nM, the GI50 (NCI/ADR-RES ovarian) was 55300 nM and the TGI (NCI/ADR-RES ovarian) was > 65000 nM. It also gave a GI50 (OVCAR-3 ovarian) of 583 nM, a TGI (OVCAR-3 ovarian) of 3120 nM and a GI50 (OVCAR-4 ovarian) of 3040 nM. The TGI (OVCAR-4 ovarian) was > 65000 nM, the GI50 (OVCAR-5 ovarian) was 1680 nM and the TGI (OVCAR-5 ovarian) was 10300 nM. The GI50 (OVCAR-8 ovarian) was 1990 nM, the TGI (OVCAR-8 ovarian) was 8040 nM and the GI50 (PC-3 prostate) was 2520 nM. For the same molecule, the TGI (PC-3 prostate) was 57800 nM, the GI50 (RPMI-8226 leukemia) was 184 nM and the TGI (RPMI-8226 leukemia) was 604 nM. It also gave a GI50 (RXF 393 renal) of 162 nM, a TGI (RXF 393 renal) of 556 nM and a GI50 (SF-268 CNS) of 2390 nM. For the same molecule, the TGI (SF-268 CNS) was > 65000 nM, the GI50 (SF-295 CNS) was 2170 nM and the TGI (SF-295 CNS) was 9460 nM. For the same molecule, the GI50 (SF-539 CNS) was 370 nM, the TGI (SF-539 CNS) was 1540 nM and the GI50 (SK-MEL-28 melanoma) was 716 nM. For the same molecule, the TGI (SK-MEL-28 melanoma) was 3370 nM, the GI50 (SK-MEL-5 melanoma) was 1090 nM and the TGI (SK-MEL-5 melanoma) was 2270 nM. The GI50 (SK-OV-3 ovarian) was 4130 nM, the TGI (SK-OV-3 ovarian) was 38200 nM and the GI50 (SN12C renal) was 1920 nM. For the same molecule, the TGI (SN12C renal) was 7920 nM, the GI50 (SNB-19 CNS) was 3440 nM and the TGI (SNB-19 CNS) was > 65000 nM. It also gave a GI50 (SR leukemia) of 188 nM, a TGI (SR leukemia) of 805 nM and a GI50 (SW-620 colon) of 437 nM. It also gave a TGI (SW-620 colon) of 8240 nM, a GI50 (T-47D breast) of 771 nM and a TGI (T-47D breast) of 2930 nM. It also gave a GI50 (TK-10 renal) of 2340 nM, a TGI (TK-10 renal) of 51400 nM and a GI50 (U251 CNS) of 2390 nM. The TGI (U251 CNS) was 14500 nM, the GI50 (UACC-257 melanoma) was 818 nM and the TGI (UACC-257 melanoma) was 2140 nM. For the same molecule, the GI50 (UACC-62 melanoma) was 958 nM and the TGI (UACC-62 melanoma) was 2210 nM.
Work on C=C(C)[C@@H]1CC[C@]2(C)[C@H](CC[C@@H]3[C@@H]([C@@](C)(O)CCC=C(C)C)CC[C@]32C)[C@@]1(C)CCC(=O)O yielded a GI50 (MDA-MB-468 breast) of 22400 nM and a TGI (MDA-MB-468 breast) of 60400 nM.
O=C1c2ccccc2C(=O)c2c(NCCN=Cc3ccccc3O)cccc21 gave a GI50 (MDA-MB-468 breast) of 1690 nM and a TGI (MDA-MB-468 breast) of 4420 nM.
Work on COc1ccc(-c2nn(-c3cccc(Cl)c3)cc2-c2nc(N)[nH]c(=O)c2C#N)cc1 yielded a GI50 (MDA-MB-468 breast) of 2120 nM and a TGI (MDA-MB-468 breast) of 6430 nM.
In the case of COc1cc(/C=C2\CCC/C(=C\c3ccc(OCC4CO4)c(OC)c3)C2=O)ccc1OCC1CO1 (configuration not stated), the GI50 (MDA-MB-468 breast) was 1630 nM and the TGI (MDA-MB-468 breast) was 4850 nM.
For CNCCn1c(=O)c2cc(OC)c(OC)cc2c2cnc3cc4c(cc3c21)OCO4, the GI50 (MDA-MB-468 breast) was < 10 nM and the TGI (MDA-MB-468 breast) was < 17.7 nM.
COc1cc(OC)c2sc(-c3ccc(-n4cncc4-c4cc(OC)c(OC)c(OC)c4)cc3)nc2c1 was tested, and the GI50 (MDA-MB-468 breast) was 3270 nM and the TGI (MDA-MB-468 breast) was > 100000 nM.
